Usually GI50 stands for the concentration at which growth is held to half of that of the control.

This note sets out measurements from ChEMBL document CHEMBL1201862, “PubChem BioAssay data set” (2004).

Structures are written as SMILES.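 Cultured in 96-well plates, cells were exposed to test compound for 48 hours across five concentrations. GI50: concentration for 50% inhibition of growth.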 Active and inactive are the calls of the source. No stated cut-off is given here; in the data, active = GI50 up to about 1.1 µM and inactive = higher.

Some test systems named below: HCT-15; OVCAR-8; MDA-N; Malme-3M; SF-539; HOP-62; SNB-75; ACHN; M14; 786-0; U-251; Hs-578T; NCI-H226; CCRF-CEM; SW-620; SNB-19; UACC-257; UACC-62; SN12C; LOX IMVI.
Assay in all cases: DTP human tumour cell line panel, 48 h

For `Oc1ccc2cc(Br)ccc2c1-c1c(O)ccc2ccc(Br)cc12`, the GI50 with HCT-15 was 14.9 µM; in the assay with OVCAR-8 it was 14.4 µM (inactive); with MDA-N it was 12.2 µM (inactive); in the assay with Malme-3M it was 13.4 µM (inactive); with SF-539, 18.5 µM (inactive); in the assay with HOP-62, 14.7 µM (inactive). The GI50 in the assay on SNB-75 is 4.73 µM (inactive); with ACHN, 14.8 µM (inactive); in the assay on M14, 17.8 µM (inactive); in the assay on 786-0, 13.8 µM (inactive); in the assay with U-251 it was 14.1 µM (inactive); with Hs-578T, 11.9 µM (inactive). The GI50 in the assay with NCI-H226 is 13.2 µM (inactive); with CCRF-CEM, 13 µM (inactive); in the assay with SW-620, 11.7 µM (inactive); in the assay on SNB-19, 15.4 µM (inactive); in the assay on UACC-257, 18.5 µM (inactive); in the assay with UACC-62 it was 17.3 µM (inactive). For the same compound, the GI50 with SN12C was 12 µM (inactive).
Turning to `COC(=O)/C=C\n1c(C)cc(=O)[nH]c1=O`, the GI50 is above 100 µM in the assay on HCT-15; > 100 µM (inactive) with OVCAR-8; > 100 µM (inactive) in the assay with MDA-N; > 100 µM (inactive) in the assay with Malme-3M; > 100 µM (inactive) with SF-539; > 100 µM (inactive) in the assay with HOP-62. Besides, the GI50 in the assay on SNB-75 was 58.2 µM (inactive); in the assay on ACHN, > 100 µM (inactive); in the assay with M14 it was > 100 µM (inactive); in the assay on 786-0, > 100 µM (inactive); with U-251, > 100 µM (inactive); with Hs-578T, > 100 µM (inactive). Moreover, the GI50 in the assay with NCI-H226, with CCRF-CEM, in the assay with SW-620, in the assay on SNB-19, in the assay with UACC-257 and in the assay with UACC-62 was > 100 µM (inactive) in each case. Also, in the assay with SN12C, the GI50 was > 100 µM (inactive).
In the case of `CCOC(=O)[C@@H]1CCN2CN(c3ccc(OC)cc3)N=C(c3ccccc3)[C@@]12c1ccccc1`, the concentration for 50% growth inhibition (GI50) was 23.9 µM in the assay on HCT-15; 22.7 µM (inactive) in the assay on OVCAR-8; 23.2 µM (inactive) in the assay on MDA-N; 16.6 µM (inactive) in the assay with Malme-3M; 27.7 µM (inactive) in the assay on HOP-62; 11.5 µM (inactive) with SNB-75. Moreover, the GI50 with ACHN was 24.8 µM (inactive); with M14 it was 20 µM (inactive); with 786-0 it was 18.6 µM (inactive); with U-251 it was 28.9 µM (inactive); in the assay on Hs-578T it was 23.4 µM (inactive); in the assay on NCI-H226, 14.7 µM (inactive). The GI50 was 23.7 µM (inactive) in the assay on CCRF-CEM; 32.1 µM (inactive) in the assay on SW-620; 37 µM (inactive) with SNB-19; 19.4 µM (inactive) in the assay on UACC-257; 15.5 µM (inactive) with UACC-62; 16 µM (inactive) in the assay with SN12C. In addition, the GI50 in the assay on LOX IMVI was 14.1 µM (inactive).
For the compound `COC(=O)/C=C/c1cc(O)c2c(c1)[C@H](C(=O)OC)[C@@H](c1ccc(O)c(O)c1)O2`, the GI50 is 0.0451 µM with HCT-15; 0.169 µM (active) in the assay on OVCAR-8; 0.0122 µM (active) in the assay with MDA-N; 0.0311 µM (active) with SF-539; 0.333 µM (active) in the assay with HOP-62; 0.0195 µM (active) with SNB-75. Further, the GI50 is 0.08 µM (active) in the assay with ACHN; 0.0386 µM (active) in the assay with M14; 0.152 µM (active) in the assay with 786-0; 0.0664 µM (active) in the assay with U-251; 0.046 µM (active) with Hs-578T; 2.48 µM (inactive) in the assay with NCI-H226. Also, the concentration for 50% growth inhibition (GI50) in the assay with CCRF-CEM is 0.0381 µM (active); in the assay with SW-620, 0.0428 µM (active); in the assay with SNB-19, 0.0386 µM (active); in the assay with UACC-257, 17.4 µM (inactive); with UACC-62 it was 0.0865 µM (active); in the assay with SN12C, 0.18 µM (active). For the same compound, the GI50 in the assay with LOX IMVI was 0.0757 µM (active).
As to `COc1cccc2c1CCc1sc(CN3CCN(C)CC3)nc1-2`, the GI50 was 83.6 µM in the assay with HCT-15; > 100 µM (inactive) in the assay with OVCAR-8; 55.5 µM (inactive) with MDA-N; > 100 µM (inactive) in the assay on Malme-3M; > 100 µM (inactive) with HOP-62; > 100 µM (inactive) with SNB-75. Moreover, the GI50 in the assay with ACHN was > 100 µM (inactive); with M14 it was 51.1 µM (inactive); in the assay on 786-0 it was 78.5 µM (inactive); in the assay with U-251, > 100 µM (inactive); in the assay with Hs-578T it was > 100 µM (inactive); with NCI-H226, 59.8 µM (inactive). In addition, the GI50 in the assay with CCRF-CEM is 24.9 µM (inactive); with SW-620, > 100 µM (inactive); in the assay with SNB-19, > 100 µM (inactive); with UACC-257, > 100 µM (inactive); with UACC-62 it was 26.2 µM (inactive); in the assay on SN12C, > 100 µM (inactive).
Take `CC1(C)O[C@@H]([C@@H](O)[C@H](O)C2SCCCS2)[C@@H](CO)O1`: the GI50 with HCT-15 was above 100 µM; in the assay with OVCAR-8 it was > 100 µM (inactive); with MDA-N it was > 100 µM (inactive); in the assay with Malme-3M it was > 100 µM (inactive); in the assay on HOP-62, > 100 µM (inactive); with SNB-75, > 100 µM (inactive). The GI50 with ACHN, in the assay with M14, in the assay with 786-0, in the assay on U-251, with Hs-578T and in the assay on NCI-H226 was > 100 µM (inactive) each time. For the same compound, the GI50 in the assay with CCRF-CEM, in the assay on SW-620, in the assay on SNB-19, with UACC-257, with UACC-62 and in the assay on SN12C was > 100 µM (inactive) in each case. Besides, in the assay with LOX IMVI, the GI50 is > 100 µM (inactive).
`C[C@@H]1CCC2[C@@H](C)[C@@H](O[C@H]3O[C@@H]4O[C@@]5(C)CCC6[C@H](C)CCC([C@H]3C)[C@]64OO5)O[C@@H]3O[C@@]4(C)CCC1[C@@]23OO4` (some centres undefined): the GI50 with HCT-15 is 0.733 µM; in the assay with OVCAR-8, 1.19 µM (inactive); in the assay with MDA-N it was 2.65 µM (inactive); with SF-539 it was > 5.51 µM (inactive); with HOP-62, > 25 µM (inactive); in the assay on SNB-75 it was > 10.8 µM (inactive). The GI50 is 3.27 µM (inactive) with ACHN; > 25 µM (inactive) in the assay on M14; 21.9 µM (inactive) in the assay with 786-0; > 25 µM (inactive) with U-251; 7.05 µM (inactive) with Hs-578T; > 15.6 µM (inactive) with NCI-H226. Moreover, the GI50 in the assay on CCRF-CEM was 7.46 µM (inactive); in the assay on SW-620, 1.16 µM (inactive); in the assay with SNB-19, > 25 µM (inactive); with UACC-257, > 25 µM (inactive); in the assay on UACC-62, 1.99 µM (inactive); in the assay with SN12C it was 16.7 µM (inactive). In the assay with LOX IMVI, the GI50 is 0.973 µM (active).
For `CC1(O)CC23CC1CCC2(C)C12CCCC(C)(C(=O)O1)C2CC3O` (centres undefined), the GI50 in the assay on HCT-15 was above 100 µM; with OVCAR-8, > 100 µM (inactive); in the assay with MDA-N, > 100 µM (inactive); with Malme-3M, > 100 µM (inactive); in the assay on SF-539, > 100 µM (inactive); in the assay with SNB-75, > 100 µM (inactive). The GI50 with ACHN, in the assay on M14, with 786-0, in the assay on U-251, with Hs-578T and in the assay with NCI-H226 was > 100 µM (inactive) in each case. For the same compound, the GI50 with CCRF-CEM, with SW-620, with SNB-19, with UACC-257, in the assay with UACC-62 and with SN12C was > 100 µM (inactive) in each case. Besides, in the assay on LOX IMVI, the GI50 is > 100 µM (inactive).
Turning to `Cn1c2ccccc2c(=O)c2cccc(C(=O)NC(CCC(N)=O)C(=O)O)c21` (centres undefined), the GI50 in the assay with HCT-15 was above 100 µM; with OVCAR-8 it was > 100 µM (inactive); with MDA-N, > 100 µM (inactive); in the assay with Malme-3M it was > 100 µM (inactive); in the assay with SF-539, > 100 µM (inactive); in the assay with HOP-62 it was > 100 µM (inactive). Besides, the GI50 in the assay on SNB-75, in the assay with ACHN, in the assay with M14, in the assay with 786-0, in the assay on U-251 and in the assay on Hs-578T was > 100 µM (inactive) each time. In addition, the GI50 with NCI-H226, with SW-620, in the assay on SNB-19, in the assay on UACC-257, in the assay on UACC-62 and in the assay on SN12C was > 100 µM (inactive) in each case. Besides, the GI50 in the assay with LOX IMVI was > 100 µM (inactive).
Regarding `CN(C)C(=N)/N=C(\N)Nc1cccc(Cl)c1`, the GI50 was above 100 µM in the assay with HCT-15; 61.4 µM (inactive) in the assay on OVCAR-8; 83.9 µM (inactive) in the assay with MDA-N; 45.3 µM (inactive) in the assay with Malme-3M; 47.8 µM (inactive) with SF-539; > 100 µM (inactive) in the assay on HOP-62. For the same compound, the GI50 with SNB-75 was 91.2 µM (inactive); with ACHN, 55.5 µM (inactive); with M14, 58.2 µM (inactive); with 786-0, > 100 µM (inactive); with U-251, > 100 µM (inactive); with Hs-578T it was > 100 µM (inactive). Moreover, the GI50 is 22.3 µM (inactive) in the assay on NCI-H226; > 100 µM (inactive) in the assay on SW-620; > 100 µM (inactive) in the assay on SNB-19; 90.8 µM (inactive) in the assay on UACC-257; 89.1 µM (inactive) in the assay with UACC-62; 98.6 µM (inactive) in the assay with SN12C. The GI50 in the assay on LOX IMVI was 35.9 µM (inactive).
